Source: patent US10414811B2, “Protease-resistant lipidated GLP-1 analogs” (MEDIMMUNE LIMITED, priority 2015, dated 2019)
Like-named read-outs stand apart in the source and are kept apart here. Numbered stars: 1 amine (or outer) side, 2 acyl side, 3 side chain; on linkers, the order of the positions; unused ones are H or OH. Square brackets hold non-standard residues; d marks the D form. Side chains are listed from the residue outwards. Peptide text beside a SMILES is read from it. * marks the point of attachment. γGlu = O=C(O)[C@H](CCC(=O)[*:2])N[*:1]; Palmitoyl = CCCCCCCCCCCCCCCC(=O)*; αMeF = C[C@](N)(Cc1ccccc1)C(=O)O; αMeK = C[C@](N)(CCCCN)C(=O)O; Lauroyl = CCCCCCCCCCCC(=O)*; αMeS = C[C@](N)(CO)C(=O)O; AEEA = NCCOCCOCC(=O)O; Aib = CC(C)(N)C(=O)O

Experiments:
Type in all cases: cell-based
[1] = target: T1, human GLP-1 receptor (GLP-1R) (Homo sapiens, UniProt P43220); assay: cAMP assay, human GLP-1R cells
T1 construct: expressed in transfected cells
Summary of the method: (§1)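 Peptide-stimulated cAMP measured by two-step HTRF after a 30 min room-temperature incubation with receptor-expressing cells (hGLP-1R, hGIPR at 1×10^5 cells/ml; hGCGR at 2×10^5 cells/ml). Duplicate dilutions; EC50 from 4-parameter logistic fit of % Delta F.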

[2] = target: T2, human glucagon receptor (GCGR) (Homo sapiens, UniProt P47871); assay: cAMP assay, human GCGR cells
T2 construct: expressed in transfected cells
Summary of the method: as §1

[3] = target: T3, human glucose-dependent insulinotropic peptide receptor (GIPR) (Homo sapiens, UniProt P48546); assay: cAMP assay, human GIPR cells
T3 construct: expressed in transfected cells
T3 sequence (P48546 22-466): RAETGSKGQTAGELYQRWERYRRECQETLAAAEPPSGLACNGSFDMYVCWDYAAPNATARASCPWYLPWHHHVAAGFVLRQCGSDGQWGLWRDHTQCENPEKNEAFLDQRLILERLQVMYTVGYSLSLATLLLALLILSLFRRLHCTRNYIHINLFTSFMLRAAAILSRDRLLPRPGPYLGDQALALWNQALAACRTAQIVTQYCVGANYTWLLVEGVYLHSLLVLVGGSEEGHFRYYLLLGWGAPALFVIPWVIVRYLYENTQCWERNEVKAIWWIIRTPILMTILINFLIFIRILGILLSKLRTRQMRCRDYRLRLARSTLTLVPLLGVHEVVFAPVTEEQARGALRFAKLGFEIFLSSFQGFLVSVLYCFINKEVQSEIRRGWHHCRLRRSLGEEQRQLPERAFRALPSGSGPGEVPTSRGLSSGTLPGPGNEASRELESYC
Summary of the method: as §1

[4] = cAMP assay, first determination (n1), read-out: Primary assay EC50 GLP-1R n1
[5] = cAMP assay, second determination (n2), read-out: Primary assay EC50 GLP-1R n2
[6] = mean of n1 and n2, read-out: Mean pM GLP-1R
[7] = cAMP assay, first determination (n1), read-out: Primary assay EC50 Gluc-R (n1)
[8] = cAMP assay, second determination (n2), read-out: Primary assay EC50 Gluc-R (n2)
[9] = cAMP assay, first determination (n1), read-out: Primary assay EC50 GIP-R (n1)
[10] = cAMP assay, second determination (n2), read-out: Primary assay EC50 GIP-R (n2)

T2 sequence (P47871 26-477): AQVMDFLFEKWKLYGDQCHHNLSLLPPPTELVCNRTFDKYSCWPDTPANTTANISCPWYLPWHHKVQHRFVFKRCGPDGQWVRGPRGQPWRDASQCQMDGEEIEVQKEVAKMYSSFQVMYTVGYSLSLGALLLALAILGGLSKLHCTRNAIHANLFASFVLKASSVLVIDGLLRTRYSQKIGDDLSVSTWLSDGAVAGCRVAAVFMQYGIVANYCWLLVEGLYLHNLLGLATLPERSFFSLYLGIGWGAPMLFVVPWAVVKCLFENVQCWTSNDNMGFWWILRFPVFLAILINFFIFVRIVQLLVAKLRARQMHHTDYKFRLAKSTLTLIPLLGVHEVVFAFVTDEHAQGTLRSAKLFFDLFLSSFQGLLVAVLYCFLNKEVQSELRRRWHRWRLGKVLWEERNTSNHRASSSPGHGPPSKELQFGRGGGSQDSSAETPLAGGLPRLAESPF
T1 sequence (P43220 24-463): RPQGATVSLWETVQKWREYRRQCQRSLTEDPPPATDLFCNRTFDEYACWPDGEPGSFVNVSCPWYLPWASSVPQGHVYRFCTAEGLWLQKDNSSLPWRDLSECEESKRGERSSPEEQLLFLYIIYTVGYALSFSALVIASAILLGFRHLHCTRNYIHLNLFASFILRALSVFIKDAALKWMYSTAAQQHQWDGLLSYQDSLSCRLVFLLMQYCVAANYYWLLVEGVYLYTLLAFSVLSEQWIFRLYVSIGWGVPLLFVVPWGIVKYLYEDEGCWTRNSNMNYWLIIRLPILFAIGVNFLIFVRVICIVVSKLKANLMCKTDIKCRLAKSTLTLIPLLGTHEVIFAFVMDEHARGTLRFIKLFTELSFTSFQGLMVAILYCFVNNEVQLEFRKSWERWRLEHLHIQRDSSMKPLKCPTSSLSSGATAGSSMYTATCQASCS

| EC50 [1, 4] | EC50 [1, 5] | EC50 [1, 6] | EC50 [2, 7] | EC50 [2, 8] | EC50 [3, 9] | EC50 [3, 10] | EC50 ([1]; tris-lipidated peptides, replicate n1, read-out: Primary assay EC50 GLP-1R n1) | EC50 ([2]; tris-lipidated peptides, first replicate, read-out: Primary assay EC50 Gluc-R (n1)) | EC50 ([3]; tris-lipidated peptides, first replicate, read-out: Primary assay EC50 GIP-R (n1)) | SMILES |
| --- | --- | --- | --- | --- | --- | --- | --- | --- | --- | --- |
| 22 pM | 15 pM | 18.2 pM | ≥ 26 nM | ≥ 26 nM | ≥ 26 nM | ≥ 26 nM | – | – | – | CCCCCCCCCCCCCCCCCC(=O)NCCCCCC(=O)NCCCCCC(=O)NCCCCCC(=O)NCCCC[C@H](NC(=O)[C@H](C)NC(=O)[C@H](C)NC(=O)[C@H](CCC(=O)O)NC(=O)CNC(=O)[C@H](CCC(=O)O)NC(=O)[C@H](CC(C)C)NC(=O)[C@](C)(Cc1ccccc1)NC(=O)[C@H](CO)NC(=O)[C@](C)(CO)NC(=O)[C@@H](NC(=O)[C@H](CC(=O)O)NC(=O)[C@H](CO)NC(=O)[C@@H](NC(=O)[C@](C)(Cc1ccccc1)NC(=O)[C@H](CO)NC(=O)CNC(=O)[C@H](CCC(=O)O)NC(=O)C(C)(C)NC(=O)[C@@H](N)Cc1c[nH]cn1)[C@@H](C)O)C(C)C)C(=O)N[C@@H](CCC(=O)O)C(=O)N[C@@](C)(Cc1ccccc1)C(=O)N[C@H](C(=O)N[C@@H](C)C(=O)N[C@@](C)(Cc1ccccc1)C(=O)N[C@H](C(=O)N[C@H](C(=O)N[C@@](C)(CCCCN)C(=O)NCC(=O)NCC(N)=O)C(C)C)C(C)C)[C@@H](C)CC [compound 151] |
| 240 pM | – | – | ≥ 26 nM | ≥ 26 nM | ≥ 26 nM | ≥ 26 nM | – | – | – | CC[C@H](C)[C@H](NC(=O)[C@](C)(Cc1ccccc1)NC(=O)[C@H](CCC(=O)O)NC(=O)[C@H](CCCCNC(=O)CC[C@H](NC(=O)CC[C@H](NC(=O)CC[C@H](NC(=O)CCCCCCCCCCCCCCCCC(=O)O)C(=O)O)C(=O)O)C(=O)O)NC(=O)[C@H](C)NC(=O)[C@H](C)NC(=O)[C@H](CCC(=O)O)NC(=O)CNC(=O)[C@H](CCC(=O)O)NC(=O)[C@H](CC(C)C)NC(=O)[C@](C)(Cc1ccccc1)NC(=O)[C@H](CO)NC(=O)[C@](C)(CO)NC(=O)[C@@H](NC(=O)[C@H](CC(=O)O)NC(=O)[C@H](CO)NC(=O)[C@@H](NC(=O)[C@](C)(Cc1ccccc1)NC(=O)[C@H](CO)NC(=O)CNC(=O)[C@H](CCC(=O)O)NC(=O)C(C)(C)NC(=O)[C@@H](N)Cc1c[nH]cn1)[C@@H](C)O)C(C)C)C(=O)N[C@@H](C)C(=O)N[C@@](C)(Cc1ccccc1)C(=O)N[C@H](C(=O)N[C@H](C(=O)N[C@@](C)(CCCCN)C(=O)NCC(=O)NCC(N)=O)C(C)C)C(C)C [compound 157] |
| – | – | – | – | – | – | – | 163 pM | ≥ 19.9 nM | ≥ 19.9 nM | CCCCCCCCCCCC(=O)N[C@@H](CCC(=O)NCCOCCOCC(=O)NCCOCCOCC(=O)NCCCC[C@H](NC(=O)CNC(=O)[C@H](CCC(=O)O)NC(=O)[C@H](CCCCNC(=O)COCCOCCNC(=O)COCCOCCNC(=O)CC[C@H](NC(=O)CCCCCCCCCCC)C(=O)O)NC(=O)[C@H](Cc1ccc(O)cc1)NC(=O)[C@H](CO)NC(=O)[C@](C)(CO)NC(=O)[C@@H](NC(=O)[C@H](CC(=O)O)NC(=O)[C@H](CO)NC(=O)[C@@H](NC(=O)[C@](C)(Cc1ccccc1)NC(=O)[C@H](CO)NC(=O)CNC(=O)[C@H](CCC(=O)O)NC(=O)C(C)(C)NC(=O)[C@@H](N)Cc1c[nH]cn1)[C@@H](C)O)C(C)C)C(=O)N[C@@H](C)C(=O)N[C@@H](C)C(=O)N[C@@](C)(CCCCN)C(=O)N[C@@H](CCC(=O)O)C(=O)N[C@@H](Cc1ccccc1)C(=O)N[C@H](C(=O)N[C@@H](C)C(=O)N[C@@H](Cc1ccccc1)C(=O)N[C@@H](CCCCNC(=O)COCCOCCNC(=O)COCCOCCNC(=O)CC[C@H](NC(=O)CCCCCCCCCCC)C(=O)O)C(=O)N[C@H](C(=O)N[C@@H](CCC(=O)O)C(=O)NCC(=O)NCC(N)=O)C(C)C)[C@@H](C)CC)C(=O)O [compound 484] (H-H[Aib]EGS[αMeF]TSDV[αMeS]SYK([AEEA-AEEA-γGlu-Lauroyl])EGK([AEEA-AEEA-γGlu-Lauroyl])AA[αMeK]EFIAFK([AEEA-AEEA-γGlu-Lauroyl])VEGG-NH2) |
| 13 pM | 6.9 pM | 10 pM | ≥ 29 nM | ≥ 29 nM | ≥ 29 nM | ≥ 29 nM | – | – | – | CCCCCCCCCCCC(=O)NCCCCCC(=O)NCCCC[C@H](NC(=O)[C@@H](NC(=O)[C@@H](NC(=O)[C@](C)(Cc1ccccc1)NC(=O)[C@H](C)NC(=O)[C@@H](NC(=O)[C@](C)(Cc1ccccc1)NC(=O)[C@H](CCC(=O)O)NC(=O)[C@](C)(CCCCN)NC(=O)[C@H](C)NC(=O)[C@H](C)NC(=O)[C@H](CCC(=O)O)NC(=O)CNC(=O)[C@H](CCC(=O)O)NC(=O)[C@H](CC(C)C)NC(=O)[C@](C)(Cc1ccccc1)NC(=O)[C@H](CO)NC(=O)[C@](C)(CO)NC(=O)[C@@H](NC(=O)[C@H](CC(=O)O)NC(=O)[C@H](CO)NC(=O)[C@@H](NC(=O)[C@](C)(Cc1ccccc1)NC(=O)[C@H](CO)NC(=O)CNC(=O)[C@H](CCC(=O)O)NC(=O)C(C)(C)NC(=O)[C@@H](N)Cc1c[nH]cn1)[C@@H](C)O)C(C)C)[C@@H](C)CC)C(C)C)C(C)C)C(=O)NCC(=O)NCC(N)=O [compound 167] |

More lines, now with the values behind:

| SMILES | EC50 [1, 4] | EC50 [1, 5] | EC50 [1, 6] | EC50 [2, 7] | EC50 [2, 8] | EC50 [3, 9] | EC50 [3, 10] | EC50 ([1]; tris-lipidated peptides, replicate n1, read-out: Primary assay EC50 GLP-1R n1) | EC50 ([2]; tris-lipidated peptides, first replicate, read-out: Primary assay EC50 Gluc-R (n1)) | EC50 ([3]; tris-lipidated peptides, first replicate, read-out: Primary assay EC50 GIP-R (n1)) |
| --- | --- | --- | --- | --- | --- | --- | --- | --- | --- | --- |
| CCCCCCCCCCCCCCCC(=O)N[C@@H](CCC(=O)NCCCC[C@H](NC(=O)[C@@H](NC(=O)[C@H](CC(=O)O)NC(=O)[C@H](CO)NC(=O)[C@@H](NC(=O)[C@](C)(Cc1ccccc1)NC(=O)[C@H](CO)NC(=O)CNC(=O)[C@H](CCC(=O)O)NC(=O)C(C)(C)NC(=O)[C@@H](N)Cc1c[nH]cn1)[C@@H](C)O)C(C)C)C(=O)N[C@@H](CO)C(=O)N[C@@](C)(Cc1ccccc1)C(=O)N[C@@H](CC(C)C)C(=O)N[C@@H](CCC(=O)O)C(=O)NCC(=O)N[C@@H](CCC(=O)O)C(=O)N[C@@H](C)C(=O)N[C@@H](C)C(=O)N[C@@](C)(CCCCN)C(=O)N[C@@H](CCC(=O)O)C(=O)N[C@@](C)(Cc1ccccc1)C(=O)N[C@H](C(=O)N[C@@H](C)C(=O)N[C@@](C)(Cc1ccccc1)C(=O)N[C@H](C(=O)N[C@H](C(=O)N[C@@](C)(CCCCN)C(=O)NCC(=O)NCC(N)=O)C(C)C)C(C)C)[C@@H](C)CC)C(=O)O [compound 89] | 450 pM | 650 pM | 548 pM | ≥ 28 nM | ≥ 28 nM | ≥ 28 nM | ≥ 28 nM | – | – | – |
| CCCCCCCCCCCCCCCCCC(=O)N[C@@H](CCC(=O)N[C@@H](CCC(=O)N[C@@H](CCC(=O)NCCCC[C@H](NC(=O)[C@H](C)NC(=O)[C@H](C)NC(=O)[C@H](CCC(=O)O)NC(=O)CNC(=O)[C@H](CCC(=O)O)NC(=O)[C@H](CC(C)C)NC(=O)[C@](C)(Cc1ccccc1)NC(=O)[C@H](CO)NC(=O)[C@](C)(CO)NC(=O)[C@@H](NC(=O)[C@H](CC(=O)O)NC(=O)[C@H](CO)NC(=O)[C@@H](NC(=O)[C@](C)(Cc1ccccc1)NC(=O)[C@H](CO)NC(=O)CNC(=O)[C@H](CCC(=O)O)NC(=O)C(C)(C)NC(=O)[C@@H](N)Cc1c[nH]cn1)[C@@H](C)O)C(C)C)C(=O)N[C@@H](CCC(=O)O)C(=O)N[C@@](C)(Cc1ccccc1)C(=O)N[C@H](C(=O)N[C@@H](C)C(=O)N[C@@](C)(Cc1ccccc1)C(=O)N[C@H](C(=O)N[C@H](C(=O)N[C@@](C)(CCCCN)C(=O)NCC(=O)NCC(N)=O)C(C)C)C(C)C)[C@@H](C)CC)C(=O)O)C(=O)O)C(=O)O [compound 148] | 16 pM | 8.7 pM | 12.1 pM | ≥ 26 nM | ≥ 26 nM | ≥ 26 nM | ≥ 26 nM | – | – | – |
| CCCCCCCCCCCCCCCC(=O)N[C@@H](CCC(=O)NCCCC[C@H](NC(=O)[C@H](CC(=O)O)NC(=O)[C@H](CO)NC(=O)[C@@H](NC(=O)[C@](C)(Cc1ccccc1)NC(=O)[C@H](CO)NC(=O)CNC(=O)[C@H](CCC(N)=O)NC(=O)C(C)(C)NC(=O)[C@@H](N)Cc1c[nH]cn1)[C@@H](C)O)C(=O)N[C@@H](CO)C(=O)N[C@@H](CCC(=O)O)C(=O)N[C@@](C)(Cc1ccccc1)C(=O)N[C@@H](CC(C)C)C(=O)N[C@@H](CC(=O)O)C(=O)N[C@@H](CO)C(=O)N[C@@H](CCC(=O)O)C(=O)N[C@@H](CCCNC(=N)N)C(=O)N[C@@H](C)C(=O)N[C@@H](CCCNC(=N)N)C(=O)N[C@@H](CC(=O)O)C(=O)N[C@@](C)(Cc1ccccc1)C(=O)N[C@H](C(=O)N[C@@H](C)C(=O)N[C@@](C)(Cc1ccccc1)C(=O)N[C@@H](CC(C)C)C(=O)N[C@@H](CCC(=O)O)C(=O)N[C@@H](C)C(=O)NCC(=O)NCC(N)=O)C(C)C)C(=O)O [compound 13] (H-H[Aib]QGS[αMeF]TSDK([γGlu-Palmitoyl])SE[αMeF]LDSERARD[αMeF]VA[αMeF]LEAGG-NH2) | 22 pM | 9.6 pM | 16 pM | 7.6 nM | 4.1 nM | 0.69 nM | 0.63 nM | – | – | – |
